The source of these data is patent US20230203126A1, “A COMPOSITION COMPRISING S-ARRESTIN PEPTIDES” (WORG PHARMACEUTICALS (HANGZHOU) CO., LTD., priority 2019, published 2023).

T1: HLA-DR3 (HLA-DRA and DRB1*0301) on CD11c+ dendritic cells of DR3tg mice (human, UniProt P01903 26-254; P79483 30-266)
T1 construct: whole, on cells; DR3tg mice express the HLA-DRB1*0301 molecule but not the mouse MHC-II molecule; also called MHC class II; MHC II molecules
T1 MHC II alpha: not shown
T1 MHC II beta: not shown

B1: 15N3K (peptide)
peptide: H-KKKVIFKKISRDKSVTIYLGKKK-NH2
notes: Synthetic S-Ag derived peptide with KKK added at both ends
B2: 17JK (peptide)
peptide: H-KKKLTFRRDLYFSRVQVYKKK-NH2
notes: as for B1
B3: 9K1K (peptide)
peptide: H-KKKAFVEQVANVVLKKK-NH2
notes: Synthetic S-Ag (S-arrestin) derived peptide with KKK added at both ends

For the first test, the system named is SAg-specific hybridoma cells with fresh or fixed APC (VAVY) cells, MHCII. Kind of test: Antigen processing independent presentation system (APIPS) assay. The class given is cell-based, DR3tg mice. As to conditions: 10 or 25 µg/ml peptide, IL-2 ELISA after 48 h. Here is the method:
FIG. 10: Variants of peptide 15N3K are apitopes. The ability of variants of the 15N3K peptide to behave as apitopes (i.e. bind to an MHCII molecule and be presented to a T cell by an antigen-presenting cell without undergoing antigen processing) was tested using an APIPS assay. DR3tg mice were immunised with SAg and hybridoma’s were generated. 5*10^4 SAg-specific hybridoma cells were cultured with 5*10^4 fresh or fixed commercial APC (VAVY) cells. Cultures were stimulated with 10 or 25 µg/ml of peptide, as indicated in the graph. T cell activation was measured by IL-2 ELISA on supernatants collected after 48 h. The graph represents the mean of duplicate measurements ± SEM.
Apitopes (Antigen Processing-Independent epiTOPES) are capable of binding to an MHCII molecule and stimulating a response from SAg-specific T cells without further antigen processing. Variants of peptide 15N3K (SEQ ID NO: 3) were tested for their ability to bind to an MHCII molecule and be presented to a T cell hybridoma without further antigen processing in an in vitro antigen processing independent presentation system (APIPS) assay. In other words, peptides consisting of parts of peptide 15N3K and peptides with various degrees of sequence identity with peptide 15N3K were tested for their ability to behave as apitopes.
All but three of the peptides are apitopes.
Antigen-specific hybridoma clones were tested for their reactivity to the peptides, presented by fixed or not fixed (fresh) cells (APCs). 5x10^4 cells were cultured with 10 µg/ml and 25 µg/ml peptide and 5x10^4 fixed or fresh APCs. To fix APCs, cells were incubated with 0.5% paraformaldehyde (Merck, Darmstadt, Germany) (pH7) for 5 min at room temperature (RT). The fixation reaction was stopped by adding 0.4 M glycine (Sigma-Aldrich) and washing the cells in RPMI-10% FCS. After 48 h, antigen-induced IL-2 production was measured by ELISA (R&D Systems, Abingdon, UK).
On to “IFKKISRDKSVTIYLG (H-IFKKISRDKSVTIYLG-NH2) [HIP-15CD, variant of peptide 15N3K]”, for which the Apitope entry is “Yes”.
Same read-out and setting: as for “ISRDKSVTIYLG (H-ISRDKSVTIYLG-NH2) [HIP-15G3, variant of peptide 15N3K]”, the entry is “No”; as for “KKISRDKSVTIYLG (H-KKISRDKSVTIYLG-NH2) [HIP-15E1, variant of peptide 15N3K]”, “Yes”; as for “KKKIFKKISRDKSVTIYLGKKK (H-KKKIFKKISRDKSVTIYLGKKK-NH2) [HIP-15CD-KKK, variant of peptide 15N3K]”, “Yes”.
Same read-out and setting: the result for “KKKISRDKSVTIYLGKKK (H-KKKISRDKSVTIYLGKKK-NH2) [HIP-15G3-KKK, variant of peptide 15N3K]” reads “Yes”; that for “KKKKKISRDKSVTIYLGKKK (H-KKKKKISRDKSVTIYLGKKK-NH2) [HIP-15E1-KKK, variant of peptide 15N3K]”, “Yes”.
For “KKKVIFKKISRDKSVKKK (H-KKKVIFKKISRDKSVKKK-NH2) [HIP-15B3-KKK, variant of peptide 15N3K]”, the Apitope result is “No”.
In the case of “KKKVIFKKISRDKSVTIKKK (H-KKKVIFKKISRDKSVTIKKK-NH2) [HIP-15B1-KKK, variant of peptide 15N3K]”, the Apitope result was “Yes”.
On the same count and under the same terms, the result for “KKKVIFKKISRDKSVTIYLKKK (H-KKKVIFKKISRDKSVTIYLKKK-NH2) [HIP-15BC-KKK, variant of peptide 15N3K]” reads “Yes”; that for “MAASGKTSKSEPNHVIFKKISRDKSV TIYLGNRDYIDHVSQV (H-MAASGKTSKSEPNHVIFKKISRDKSVTIYLGNRDYIDHVSQV-NH2) [HIP-115, variant of peptide 15N3K]”, “Yes”; that for “VIFKKISRDKSV (H-VIFKKISRDKSV-NH2) [HIP-15B3, variant of peptide 15N3K]”, “No”.
Same read-out and setting: as for “VIFKKISRDKSVTI (H-VIFKKISRDKSVTI-NH2) [HIP-15B1, variant of peptide 15N3K]”, the entry is “Yes”.
As to “VIFKKISRDKSVTIYL (H-VIFKKISRDKSVTIYL-NH2) [HIP-15BC, variant of peptide 15N3K]”, the Apitope result is on record as “Yes”.

A further test addresses T1, HLA-DR3 (HLA-DRA and DRB1*0301) on …. Kind of test: in vivo MHC class II loading assay, DR3tg mice, read out by IFNy of peptide-specific CD4+ T cells.
Conditions: not given
As to the method:
FIG. 2: Peptide 17JK is correctly loaded on MHC class II in vivo. Response of peptide-specific CD4+ T cells towards peptide loaded in vivo on dendritic cells is shown. HLA-DR3-transgenic mice were injected subcutaneously with 100 µg of 17JK peptide. 2 h post injection, spleens were dissected and CD11c+ cells (dendritic cells) were isolated. These CD11c+ cells were co-cultured with peptide-specific CD4+ cells for 72 h at 37° C. IFNy was measured in the supernatant of these cultures to evaluate the response to peptide by the CD4+ T cells. (*** p<0.001 Mann-Whitney U-test)
FIG. 3: Peptide 15N3K is correctly loaded on MHC class II in vivo. Response of peptide-specific CD4+ T cells towards peptide loaded in vivo on dendritic cells is shown. HLA-DR3-transgenic mice were injected subcutaneously with 100 µg of 15N3K peptide. 2h post injection, spleens were dissected and CD11c+ cells (dendritic cells) were isolated. These CD11c+ cells were co-cultured with peptide-specific CD4+ cells for 72 h at 37° C. IFNy was measured in the supernatant of these cultures to evaluate the response to peptide by the CD4+ T cells. (*** p<0.001 Mann-Whitney U-test)
DR3tg or DR2tg mice were injected with 100 µg of peptide in 100 µl PBS subcutaneously (s.c.) in the flank. Control animals received a s.c. injection of 100 µl PBS. After 2 hours, spleens were harvested and single-cell suspensions were prepared. […]
Turning to B1, the binding result is given as “binds”.
As to B2, the binding result is reported as “binds”.

The target in another test is T2, HLA-DR2 (DRA*0101 and DRB1*1501) on CD11c+ dendritic cells of DR2tg mice (human, UniProt P01903 26-254; P01911 30-266).
T2 construct: whole, on cells; DR2tg mice express the HLA-DRB1*1501 molecule but not the mouse MHC class II molecule; also called MHC class II; MHC II molecules
The experiment in a line: in vivo MHC class II loading assay, DR2tg mice, read out by IFNy of peptide-specific CD4+ T cells.
Conditions: not given
Here is the method:
FIG. 1: Peptide 9K1K is correctly loaded on MHC class II in vivo. Response of peptide-specific CD4+ T cells towards peptide loaded in vivo on dendritic cells is shown. HLA-DR2-transgenic mice were injected subcutaneously with 100 µg of 9K1K peptide. 2 h post injection, spleens were dissected and CD11 c+ cells (dendritic cells) were isolated. These CD11c+ cells were co-cultured with peptide-specific CD4+ cells for 72 h at 37° C. IFNy was measured in the supernatant of these cultures to evaluate the response to peptide by the CD4+ T cells. (* p<0.05 Mann-Whitney U-test)
DR3tg or DR2tg mice were injected with 100 µg of peptide in 100 µl PBS subcutaneously (s.c.) in the flank. Control animals received a s.c. injection of 100 µl PBS. After 2 hours, spleens were harvested and single-cell suspensions were prepared. CD11 c+ cells were positively selected using CD11c microbeads according to the manufacturer’s instructions (Miltenyi Biotec, Bergisch Gladbach, Germany). Average purities of >92% were reached. […] After 72 hours, supernatant of these co-cultures was collected and CD4+ T cell activation was analysed by IFNy ELISA (R&D Systems, Abingdon, UK). In a parallel experiment, CD4+ T cell responses towards peptide added in vitro were assessed to make sure the T cells recognize the peptides presented by the CD11 c+ cells.
On to B3, for which the binding result was “binds”.
